Source: PMC5198778 (MedChemComm, 2016)

Experiments:
CARM1 = biological target: T1, CARM1 (Homo sapiens, UniProt Q86X55); assay: Mechanism of action; assay type: biochemical; details: IC50 against CARM1 with increasing peptide substrate or SAM concentrations
T1 sequence (Q86X55 1-608): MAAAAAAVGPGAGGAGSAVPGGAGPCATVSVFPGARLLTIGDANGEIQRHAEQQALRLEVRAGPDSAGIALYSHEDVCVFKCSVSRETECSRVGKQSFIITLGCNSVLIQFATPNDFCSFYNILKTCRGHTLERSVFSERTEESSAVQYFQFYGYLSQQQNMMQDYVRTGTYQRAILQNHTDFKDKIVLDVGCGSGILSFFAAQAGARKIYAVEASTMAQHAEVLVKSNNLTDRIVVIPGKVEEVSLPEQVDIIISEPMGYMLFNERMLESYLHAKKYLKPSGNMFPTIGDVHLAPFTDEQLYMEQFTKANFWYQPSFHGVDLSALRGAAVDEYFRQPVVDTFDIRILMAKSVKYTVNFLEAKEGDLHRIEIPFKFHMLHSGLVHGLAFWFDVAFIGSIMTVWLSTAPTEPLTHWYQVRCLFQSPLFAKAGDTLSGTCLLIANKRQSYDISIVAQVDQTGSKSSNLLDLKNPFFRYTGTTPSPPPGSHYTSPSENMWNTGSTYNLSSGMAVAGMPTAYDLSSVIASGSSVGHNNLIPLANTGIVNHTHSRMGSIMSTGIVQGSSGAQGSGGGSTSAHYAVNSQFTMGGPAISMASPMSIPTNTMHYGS

other PRMTs = assay: Activity against other PRMTs; assay type: biochemical; details: PRMTs other than CARM1, PRMT6 and PRMT8
PRMT8 = PRMT8 (Homo sapiens, UniProt Q9NR22); assay: PRMT8 biochemical inhibition assay
[1] = test system: type II and type III PRMTs as well as other methyltransferases; details: cited from earlier work
all type I PRMTs = details: cited from earlier work

Sequence of PRMT8 (Q9NR22 whole entry, species assumed): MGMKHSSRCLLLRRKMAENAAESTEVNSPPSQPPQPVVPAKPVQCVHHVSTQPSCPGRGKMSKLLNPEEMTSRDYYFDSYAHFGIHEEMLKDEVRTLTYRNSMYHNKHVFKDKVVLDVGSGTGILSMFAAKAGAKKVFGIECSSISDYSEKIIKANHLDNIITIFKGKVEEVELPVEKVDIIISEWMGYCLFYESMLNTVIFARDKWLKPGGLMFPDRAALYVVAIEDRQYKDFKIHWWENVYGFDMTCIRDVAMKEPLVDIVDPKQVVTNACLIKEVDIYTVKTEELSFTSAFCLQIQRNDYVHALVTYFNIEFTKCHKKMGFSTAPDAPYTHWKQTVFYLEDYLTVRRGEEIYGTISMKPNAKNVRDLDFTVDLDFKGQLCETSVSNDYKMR

## CNCCN1CCC(NCc2cccc(Br)c2)CC1 [Compound 9]
CARM1
  mechanism of action versus cofactor SAM and peptide substrate: noncompetitive

## CNCCN1CC(OCc2cccc(OC(F)(F)F)c2)C1 [Compound 6]
Other PRMTs
  activity against other PRMTs: inactive
PRMT8
  IC50: 1200 nM

## CC(C)Oc1ccc(-c2c[nH]cc2CN(C)CCN)cc1 [MS023]
[1]
  activity against type II and type III PRMTs and other methyltransferases: inactive
All type I PRMTs
  activity against all type I PRMTs: potent
